What was measured:
PKD1 [1] = biological target: T1, PKD1 (Homo sapiens, UniProt Q15139); conditions: PKD; cited from earlier work
T1 sequence (Q15139 1-912): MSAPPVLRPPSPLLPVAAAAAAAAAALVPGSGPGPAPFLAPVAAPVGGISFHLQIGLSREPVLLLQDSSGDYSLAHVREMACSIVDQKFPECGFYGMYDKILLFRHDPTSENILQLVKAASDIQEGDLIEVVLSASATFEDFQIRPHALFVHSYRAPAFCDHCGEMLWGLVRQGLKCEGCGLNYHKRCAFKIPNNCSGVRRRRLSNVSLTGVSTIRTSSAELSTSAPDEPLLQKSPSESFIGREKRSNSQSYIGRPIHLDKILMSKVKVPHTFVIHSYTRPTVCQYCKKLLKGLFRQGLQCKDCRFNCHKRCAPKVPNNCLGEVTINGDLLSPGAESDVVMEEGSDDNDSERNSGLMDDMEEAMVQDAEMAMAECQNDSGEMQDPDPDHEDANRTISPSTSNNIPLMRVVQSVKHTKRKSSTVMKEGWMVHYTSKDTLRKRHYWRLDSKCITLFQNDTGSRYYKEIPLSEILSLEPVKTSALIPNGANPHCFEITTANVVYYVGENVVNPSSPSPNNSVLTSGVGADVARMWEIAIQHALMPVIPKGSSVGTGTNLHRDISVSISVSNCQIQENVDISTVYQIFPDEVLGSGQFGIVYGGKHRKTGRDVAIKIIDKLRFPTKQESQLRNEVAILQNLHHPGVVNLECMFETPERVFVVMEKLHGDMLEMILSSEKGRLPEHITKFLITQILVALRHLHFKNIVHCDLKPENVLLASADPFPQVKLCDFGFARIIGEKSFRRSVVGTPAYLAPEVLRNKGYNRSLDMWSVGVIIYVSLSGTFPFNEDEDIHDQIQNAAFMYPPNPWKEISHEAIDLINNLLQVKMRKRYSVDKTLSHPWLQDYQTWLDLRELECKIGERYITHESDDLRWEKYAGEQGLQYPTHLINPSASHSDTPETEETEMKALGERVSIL

PKCδ = PKCδ (Homo sapiens, UniProt Q05655); assay: Selectivity assay against PKCδ; assay type: biochemical; conditions: selectivity counterscreen
Chain of PKCδ (Q05655 whole entry): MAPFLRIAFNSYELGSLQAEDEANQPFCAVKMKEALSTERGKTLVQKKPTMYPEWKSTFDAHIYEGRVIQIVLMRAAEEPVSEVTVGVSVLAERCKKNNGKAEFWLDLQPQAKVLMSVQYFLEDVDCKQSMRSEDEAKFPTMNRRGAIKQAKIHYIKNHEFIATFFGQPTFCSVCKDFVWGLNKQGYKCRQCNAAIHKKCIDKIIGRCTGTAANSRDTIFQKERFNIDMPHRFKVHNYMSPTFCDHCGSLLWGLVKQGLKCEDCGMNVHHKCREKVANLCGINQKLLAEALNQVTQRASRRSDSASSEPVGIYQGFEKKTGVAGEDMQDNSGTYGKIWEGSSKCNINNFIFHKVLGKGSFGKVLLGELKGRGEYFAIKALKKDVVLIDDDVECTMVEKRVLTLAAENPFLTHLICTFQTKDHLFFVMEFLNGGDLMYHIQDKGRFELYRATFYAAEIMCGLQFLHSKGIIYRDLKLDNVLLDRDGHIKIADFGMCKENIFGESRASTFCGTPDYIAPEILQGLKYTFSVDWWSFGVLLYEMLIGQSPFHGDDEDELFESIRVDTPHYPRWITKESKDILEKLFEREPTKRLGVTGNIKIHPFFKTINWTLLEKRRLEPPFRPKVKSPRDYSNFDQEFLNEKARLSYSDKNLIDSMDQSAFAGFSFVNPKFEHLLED

PKCβI = PKCβI (Homo sapiens, UniProt P05771); assay: Selectivity assay against PKCβI; assay type: biochemical; conditions: selectivity counterscreen
Chain of PKCβI (P05771 whole entry): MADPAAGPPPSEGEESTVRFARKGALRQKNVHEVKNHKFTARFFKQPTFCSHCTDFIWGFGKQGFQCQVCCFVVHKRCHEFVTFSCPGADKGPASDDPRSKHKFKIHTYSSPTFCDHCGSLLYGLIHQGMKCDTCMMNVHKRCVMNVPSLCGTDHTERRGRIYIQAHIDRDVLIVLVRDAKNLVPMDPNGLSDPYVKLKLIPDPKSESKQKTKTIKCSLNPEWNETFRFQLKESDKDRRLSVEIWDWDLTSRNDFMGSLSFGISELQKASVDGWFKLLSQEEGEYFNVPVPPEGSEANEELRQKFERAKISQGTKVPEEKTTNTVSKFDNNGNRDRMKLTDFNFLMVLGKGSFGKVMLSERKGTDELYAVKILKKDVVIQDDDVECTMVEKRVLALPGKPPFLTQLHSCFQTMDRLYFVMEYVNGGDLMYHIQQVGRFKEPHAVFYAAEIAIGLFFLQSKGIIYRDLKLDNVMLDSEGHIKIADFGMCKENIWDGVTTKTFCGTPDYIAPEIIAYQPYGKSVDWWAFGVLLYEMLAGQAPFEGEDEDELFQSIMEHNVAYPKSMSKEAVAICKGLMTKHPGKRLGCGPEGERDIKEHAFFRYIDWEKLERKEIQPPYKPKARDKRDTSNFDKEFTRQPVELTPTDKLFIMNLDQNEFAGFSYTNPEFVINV

PKCα = PKCα (Homo sapiens, UniProt P17252); assay: Selectivity assay against PKCα; assay type: biochemical; conditions: selectivity counterscreen
[2] = biological target: T2, PKD1 autophosphorylation at S916 in LNCaP prostate cancer cells (Homo sapiens, UniProt Q15139); assay: Cellular PKD1 autophosphorylation at S916; assay type: cell-based; conditions: vs CID755673
T2 sequence (Q15139 1-912): T1 sequence (Q15139 1-912)

PKD1 [3] = biological target: T1, PKD1; assay: PKD1 radiometric kinase activity assay; assay type: biochemical; conditions: ratio of in vitro IC50 vs CID755673
[4] = in vivo studies; cited from earlier work

| activity against PKCδ (PKCδ) | activity against PKCβI (PKCβI) | activity against PKCα (PKCα) | Compound | mode of inhibition (ATP competition) (PKD1 [1]) | improvement (lowering) of cellular IC50 compared to CID755673 [2] | improvement in PKD1 in vitro potency over CID755673 (PKD1 [3]) | plasma half-life [4] |
| --- | --- | --- | --- | --- | --- | --- | --- |
| did not detect significant activities | did not detect significant activities | did not detect significant activities | [N-]=[N+]=Nc1ccc2sc3c(c2c1)SCCNC3=O [mcf292-08] | – | – | – | – |
| did not detect significant activities | did not detect significant activities | did not detect significant activities | O=C1NCCCc2c1[nH]c1ccc(O)cc21 [kb-NB123-57] | – | – | – | – |

The next lines start with the molecule.

| Compound | activity against PKCδ (PKCδ) | activity against PKCβI (PKCβI) | activity against PKCα (PKCα) | mode of inhibition (ATP competition) (PKD1 [1]) | improvement (lowering) of cellular IC50 compared to CID755673 [2] | improvement in PKD1 in vitro potency over CID755673 (PKD1 [3]) | plasma half-life [4] |
| --- | --- | --- | --- | --- | --- | --- | --- |
| O=C1NCCCc2c1oc1ccc(O)cc21 [CID755673] | – | – | – | not an ATP-competitive inhibitor | – | – | – |
| COc1ncc2sc3c(c2n1)SCCNC3=O [kmg-NB4-23] | did not detect significant activities | did not detect significant activities | did not detect significant activities | – | – | – | – |
| O=C1NCCSc2c1sc1ccc(O)cc21 [kb-NB142-70] | – | – | – | – | 5 fold | ~7 fold | short plasma half-life |
